Measurements from PMC7935113, “Development and in vivo evaluation of intranasal formulations of parathyroid hormone (1-34)” (Drug Delivery, 2021).
Like-named read-outs stand apart in the source and are kept apart here.

Columns and labels:
[1] = tested on: Human nasal epithelial cells (HNEpCs); settings: MTT, n = 8
Protocol: Human nasal epithelial cells (HNEpCs) purchased from the American Type Culture Collection (Rockville, MD, USA) were used as an in vitro model of the nasal mucosa. The cells were cultured in culture medium (Eagle’s minimum essential medium (MEM) supplemented with 10% (v/v) fetal bovine serum (FBS) and 1% penicillin/streptomycin solution) and maintained in 5% CO2/95% humidified air at 37 °C.
HNEpCs were seeded at a density of 5 × 10^3 cells/well in 96-well plates (Corning, NY, USA) and cultured for 24 h before the experiment. […] The culture medium was used as a negative control, and 20% dimethyl sulfoxide (DMSO) was used as a positive control. Following 6 h of incubation, the test solutions were removed, and the cytotoxicity was determined using a commercial MTT kit. The cells were washed, and then, MTT reagent in culture medium was added for a further 3 h incubation at 37 °C. The remaining media was removed, and 200 μL DMSO was added to each well to dissolve the formazan crystals. The resulting absorbance was read at 490 nm.

HNEpCs = assay: Cellular internalization of FITC-PTH; type: cell-based, human
Protocol: A 20 μg/mL FITC-PTH solution without any permeation enhancer was used as a negative control, and a 20 μg/mL FITC-PTH solution supplemented with 0.1% Triton X-100 was used as a positive control. The test solutions were added to the corresponding wells, and the amount of cellularly internalized PTH was measured after 30 min following sample applications. […] Finally, the cells were lysed with cell lysis buffer. The resulting lysis products were collected for fluorescence measurement and protein content measurement. The fluorescence measurement was carried out using a Varioskan LUX multimode microplate reader with ex/em 485/518 nm, and the protein content was measured by using a commercial BCA protein assay kit (Solarbio Life Sciences). The amount of internalized PTH(1-34) in each well was normalized to the protein content.

nasal septum mucosae [2] = assay: Nasal mucosal toxicity: mucosa morphology (SEM) after intranasal dosing; settings: SD rats, citric acid solutions (0.2-0.6%), 15 consecutive days
Protocol: (§1) Mucosa morphology was considered a direct indicator of nasal mucosal toxicity. […] This mucosa morphology study was performed in vivo using healthy male SD rats. The rats were lightly anesthetized with diethyl ether and intranasally administered test solutions. Generally, 0.1 mL of the corresponding solution was equally administered to the two nostrils of one rat for 15 consecutive days. Finally, 2 days after stopping intranasal administration, the rats were sacrificed by an intraperitoneal injection of urethane and their hearts were perfused with saline. The nasal septum mucosae were then carefully peeled off, fixed with 3% w/v glutaraldehyde (diluted by PBS), and dehydrated with a gradient of ethanol. Finally, the fixed nasal mucosae were dried at the CO2 critical point, sprayed with ion sputtering, and observed under SEM.

HNEpC layers = assay: Permeability of FITC-PTH across HNEpC layers (Transwell); type: in vitro ADME, human; settings: HNEpC monolayer, apical to basolateral, 10 μg/mL FITC-PTH, all tested concentrations (0.015%, 0.010% and 0.005%), fluorescence
Protocol: […] were seeded at a density of 10 × 10^4 cells/well on Transwell® supports with a pore size of 0.4 μm. TEER (Ω·cm^2) was determined using a Millicell electrical resistance system (ERS) voltohmmeter (Millipore, Bedford, MA, USA). Cell monolayers with TEER values exceeding 500 Ω·cm^2 were used for further experiments. […] Prior to the permeability experiment, the cell monolayers were equilibrated with 1.0 mL Hank's balanced salt solution (HBSS) in the basolateral compartment and 0.4 mL culture medium in the apical chamber for 30 min. Subsequently, the apical culture medium was withdrawn, and 0.2 mL solution of a test solution was applied. Thereafter, 200 μL receiver samples from the basolateral compartment were taken every 30 min for 4 h, and then, 200 μL fresh HBSS was added to the basolateral compartment.

HNEpC monolayers = assay: Effect of permeation enhancers on TEER of HNEpC monolayers; type: cell-based, human; settings: HNEpC monolayer, apical application, all solutions (0.005%, 0.010%, 0.015%), n = 8
Protocol: HNEpCs were seeded at a density of 10 × 10^4 cells/well on Transwell® supports with a pore size of 0.4 μm. TEER (Ω·cm^2) was determined using a Millicell electrical resistance system (ERS) voltohmmeter (Millipore, Bedford, MA, USA). Cell monolayers with TEER values exceeding 500 Ω·cm^2 were used for further experiments. […] Prior to the permeability experiment, the cell monolayers were equilibrated with 1.0 mL Hank’s balanced salt solution (HBSS) in the basolateral compartment and 0.4 mL culture medium in the apical chamber for 30 min. Subsequently, the apical culture medium was withdrawn, and 0.2 mL solution of a test solution was applied. Thereafter, 200 μL receiver samples from the basolateral compartment were taken every 30 min for 4 h, and then, 200 μL fresh HBSS was added to the basolateral compartment. Finally, the FITC-PTH concentration in the collected samples was analyzed using a Varioskan LUX multimode microplate reader with ex/em 485/518 nm.
HNEpC monolayers were cultured as described above. The baseline TEER was measured before the experiment for 60 min. […] A chitosan solution at 0.003% w/v in culture medium was used as a positive control. The results for each experiment are presented as percentages relative to their respective baseline TEER.

nasal septum mucosae [3] = settings: rat, in vivo
Protocol: as §1

[4] = cited from earlier work
[5] = Isoelectric point by capillary electrophoresis; type: physicochemical; settings: authors' previous capillary electrophoresis (CE) analysis, no reference given
Source text: The essential point for the development of a liquid PTH(1-34) formulation was ensuring the stability of PTH(1-34). In this context, the aqueous environment was screened by utilizing MD simulations and HPLC analysis. In recent decades, MD simulations have been increasingly reported to investigate the conformational equilibria of polypeptides in solution (Colombo et al., [2002]). […] The HPLC analysis results further confirmed that PTH(1-34) had the best chemical stability in 0.008 M ABS. According to our previous capillary electrophoresis (CE) analysis, the isoelectric point (pI) of PTH(1-34) is approximately pH 7.77, indicating easy solubility and stability under acidic condition. The pH values of PBS and ABS were 7.4 and 4.0, respectively. Consequently, 0.008 M ABS had the best stability performance, most likely due to its acidic pH value and low ionic strength.

[6] = Chemical stability of PTH(1-34) in aqueous buffer solutions at 40 °C (HPLC); type: physicochemical
Protocol: HPLC measurements were performed with an HPLC instrument equipped with a photodiode array detector. A C-18 column (Cosmosil 250 × 4.6 mm, 5 µm, Japan) was used, and the sample solutions were applied via an autosampler (Merck-Hitachi, Darmstadt, Germany). Analysis of PTH(1-34) and its degradation products was performed under the following conditions. Mobile phase A was 0.1% (v/v) TFA in acetonitrile, and mobile phase B was 0.1% TFA (v/v) in water. […] A detection wavelength of 214 nm and column temperature of 25 °C were used.
Stability studies were carried out to clarify the influence of aqueous solvent on the stability of PTH(1-34) during storage and to determine the optimal aqueous environment. First, PBS and ABS were prepared as solvent solutions: 0.063 M PBS was prepared by dissolving 3.73 g sodium dihydrogen phosphate and 36.55 g disodium hydrogen phosphate in 1000 mL Milli-Q water; 0.032 M ABS was prepared as by dissolving 0.664 g glacial acetic acid and 1.64 g sodium acetate trihydrate together in 1000 mL Milli-Q water. Then, 0.016 M ABS, 0.008 M ABS, and 0.004 M ABS were prepared by diluting 0.032 M ABS with Milli-Q water. Following preparation, the pH values of the PBS and ABS solutions were measured using a pH meter (Mettler Toledo FiveEasy Plus).
To examine the stability of peptides in each aqueous medium, 3 mg/mL PTH(1-34) was separately incubated in 0.063 M PBS, 0.032 M ABS, 0.016 M ABS, 0.008 M ABS and 0.004 M ABS. Aliquots of PTH(1-34) were individually incubated at 40 °C, and the PTH(1-34) content was analyzed at 0, 6, 12, 24, 36, 48, 60 and 72 h postincubation. In addition, the impurities of PTH(1-34) in the 0.032 M ABS, 0.016 M ABS, 0.008 M ABS and 0.004 M ABS solutions were quantified by HPLC at the time points of 0, 24, 72 and 120 h postincubation at 40 °C.

C[S+](C)[O-] [DMSO, dimethyl sulfoxide]
HNEpC viability ([1]; 6 h, 20% DMSO positive control, vs culture medium): statistically lower

O=C(O)CC(O)(CC(=O)O)C(=O)O [citric acid]
cellular internalization of FITC-PTH (normalized to protein content) (HNEpCs; 20 μg/mL FITC-PTH with 0.005%, 0.010%, 0.015% enhancer, 30 min, fluorescence 485/518 nm, n = 8): did not exhibit an obvious promotion effect | observations in rats during intranasal administration (nasal septum mucosae [2]): bleeding of the nose was observed | duration of enhanced permeation rate of FITC-PTH relative to control (HNEpC layers): 60 min | HNEpC viability ([1]; 6 h exposure, concentration of 0.1%): 73.03% | HNEpC viability ([1]; 6 h exposure, concentrations of 0.01% and 0.05%, vs culture medium): comparable with that of the negative control | time point of TEER reversal to the baseline level (HNEpC monolayers): 40 min

Triton X-100
cellular internalization of FITC-PTH (normalized to protein content) (HNEpCs; 20 μg/mL FITC-PTH with 0.1% Triton X-100, positive control): significantly promoted

macrogol 15-hydroxystearate [Kolliphor® HS·15]
observations in rats during intranasal administration (nasal septum mucosae [3]): did not induce any observed discomfort

nafarelin
bioavailability ([4]; in vivo): lower than 3%

parathyroid hormone (1-34) [PTH(1-34)]
isoelectric point (pI) [5]: ~7.77 pH | impurities of PTH(1-34) ([6]; 3 mg/mL in 0.008 M ABS compared with 0.032, 0.016 and 0.004 M ABS, 120 h, HPLC): lowest amount of impurities | PTH(1-34) content ([6]; chemical stability, 3 mg/mL in 0.032, 0.016, 0.008 and 0.004 M ABS (pH 4.0), up to 72 h, HPLC UV 214 nm): no detectable decrease | content of PTH(1-34) ([6]; chemical stability, 3 mg/mL in 0.063 M PBS (pH 7.4), after 72 h of incubation, HPLC UV 214 nm): 76.34%

salmon calcitonin
bioavailability ([4]; intranasal peptide formulations devoid of permeation enhancers, ref Ozsoy et al., [2009]): lower than 3%
